Tests used:
[1] = target: B-cell lymphoma 6 protein (Homo sapiens, UniProt P41182)
BCL-6/NCOR2 = BCL-6/NCOR2 (Homo sapiens, UniProt P41182); type: cell-based, HEK293T
Description: Inhibition of C-terminal NanoLuc-fused BCL6 (unknown origin)/Halo-tagged SMRT (unknown origin) interaction transfected in HEK293T cells measured after 6 hrs by NanoBRET assay

[2] = target: BCL-6/NCOR2 (Homo sapiens) (UniProt Q9Y618+P41182); settings: HEK293T, time 6.0 hrs
BCL-6/NCOR2 (Homo sapiens), sequence (Q9Y618 whole entry, looked up, other chains not shown): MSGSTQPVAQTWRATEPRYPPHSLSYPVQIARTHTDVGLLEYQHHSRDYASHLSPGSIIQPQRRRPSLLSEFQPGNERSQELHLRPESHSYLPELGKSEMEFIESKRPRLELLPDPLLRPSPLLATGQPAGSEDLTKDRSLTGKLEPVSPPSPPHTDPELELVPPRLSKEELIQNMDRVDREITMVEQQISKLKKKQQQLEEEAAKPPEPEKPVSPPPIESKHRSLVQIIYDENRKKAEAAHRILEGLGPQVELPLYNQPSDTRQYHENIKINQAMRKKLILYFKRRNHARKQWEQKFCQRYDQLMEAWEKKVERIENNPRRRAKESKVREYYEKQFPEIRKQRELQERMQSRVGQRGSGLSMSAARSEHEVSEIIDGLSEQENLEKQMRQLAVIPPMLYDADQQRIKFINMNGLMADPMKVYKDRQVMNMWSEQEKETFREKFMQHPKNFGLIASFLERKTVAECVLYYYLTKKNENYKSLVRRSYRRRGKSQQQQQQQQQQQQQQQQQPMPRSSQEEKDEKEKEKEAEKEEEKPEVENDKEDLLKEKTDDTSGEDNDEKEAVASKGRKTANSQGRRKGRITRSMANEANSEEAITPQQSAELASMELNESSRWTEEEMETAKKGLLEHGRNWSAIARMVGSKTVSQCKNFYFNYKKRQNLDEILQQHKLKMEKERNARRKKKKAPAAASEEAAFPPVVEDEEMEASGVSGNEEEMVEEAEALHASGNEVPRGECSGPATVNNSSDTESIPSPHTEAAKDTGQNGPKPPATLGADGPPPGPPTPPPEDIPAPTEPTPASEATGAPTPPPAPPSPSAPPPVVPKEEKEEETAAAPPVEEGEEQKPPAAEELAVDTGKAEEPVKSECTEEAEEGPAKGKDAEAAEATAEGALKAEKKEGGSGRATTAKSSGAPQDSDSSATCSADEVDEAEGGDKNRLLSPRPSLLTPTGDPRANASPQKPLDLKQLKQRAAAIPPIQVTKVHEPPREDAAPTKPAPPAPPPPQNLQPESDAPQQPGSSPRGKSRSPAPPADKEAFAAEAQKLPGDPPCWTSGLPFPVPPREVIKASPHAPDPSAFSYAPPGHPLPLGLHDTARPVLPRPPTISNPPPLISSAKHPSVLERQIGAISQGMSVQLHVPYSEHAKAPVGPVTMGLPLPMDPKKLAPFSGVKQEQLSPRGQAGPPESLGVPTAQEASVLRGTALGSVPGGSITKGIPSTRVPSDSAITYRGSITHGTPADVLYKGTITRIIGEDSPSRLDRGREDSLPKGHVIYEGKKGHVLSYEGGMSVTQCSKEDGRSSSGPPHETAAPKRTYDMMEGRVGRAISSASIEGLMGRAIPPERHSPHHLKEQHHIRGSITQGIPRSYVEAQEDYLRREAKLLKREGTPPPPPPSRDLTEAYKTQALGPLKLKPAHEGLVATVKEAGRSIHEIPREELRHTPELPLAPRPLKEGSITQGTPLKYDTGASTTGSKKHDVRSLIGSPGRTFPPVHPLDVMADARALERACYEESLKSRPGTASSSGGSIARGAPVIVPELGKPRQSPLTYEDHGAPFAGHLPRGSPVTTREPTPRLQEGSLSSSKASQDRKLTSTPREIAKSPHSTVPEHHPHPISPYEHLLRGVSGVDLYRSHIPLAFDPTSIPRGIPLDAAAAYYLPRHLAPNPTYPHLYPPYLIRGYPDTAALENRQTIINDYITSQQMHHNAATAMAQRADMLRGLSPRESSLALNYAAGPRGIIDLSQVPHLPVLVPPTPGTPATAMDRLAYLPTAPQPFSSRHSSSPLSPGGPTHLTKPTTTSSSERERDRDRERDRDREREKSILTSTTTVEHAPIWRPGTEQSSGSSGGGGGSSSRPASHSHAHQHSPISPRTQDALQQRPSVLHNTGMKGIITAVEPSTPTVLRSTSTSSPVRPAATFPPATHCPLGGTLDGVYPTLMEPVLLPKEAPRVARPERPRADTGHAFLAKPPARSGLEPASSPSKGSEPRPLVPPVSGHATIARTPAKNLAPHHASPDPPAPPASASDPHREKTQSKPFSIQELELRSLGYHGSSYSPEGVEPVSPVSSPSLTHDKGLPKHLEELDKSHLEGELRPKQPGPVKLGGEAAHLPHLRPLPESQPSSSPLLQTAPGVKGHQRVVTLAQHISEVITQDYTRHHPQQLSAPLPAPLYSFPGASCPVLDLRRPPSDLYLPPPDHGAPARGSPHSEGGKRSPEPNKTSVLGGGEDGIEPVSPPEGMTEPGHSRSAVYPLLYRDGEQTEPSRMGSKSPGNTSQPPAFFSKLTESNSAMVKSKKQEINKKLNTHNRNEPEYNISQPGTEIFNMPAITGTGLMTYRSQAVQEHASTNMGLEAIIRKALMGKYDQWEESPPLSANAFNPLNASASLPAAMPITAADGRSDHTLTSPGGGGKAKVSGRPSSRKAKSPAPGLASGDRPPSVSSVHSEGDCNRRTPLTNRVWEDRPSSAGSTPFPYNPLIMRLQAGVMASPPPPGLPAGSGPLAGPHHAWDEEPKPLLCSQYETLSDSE

SMILES | IC50 [1] | IC50 (BCL-6/NCOR2) | fIC50 [2] | fIC90 [2] | IC90 [2]
CC(=O)N1C2CCC1CN(c1ncc(Cl)c(Nc3ccc4c(c3)c3c(c(=O)n4C)OCC(F)(F)[C@H](C4CC4)N3)n1)C2 | 1.9 nM | 41 nM | – | – | –
Cn1c(=O)c2c(c3cc(Nc4ccnc(F)c4Cl)ccc31)N[C@@H](C1CC1)C(F)(F)CO2 | – | – | 6.8 nM | 44 nM | –
Cn1c(=O)c2c(c3cc(Nc4nc(N5CC(F)(F)C5)ncc4Cl)ccc31)N[C@@H](C1CC1)C(F)(F)CO2 | – | – | 8.9 nM | 50 nM | –
CC(=O)N1CC2CCC(C1)N2c1ncc(Cl)c(Nc2ccc3c(c2)c2c(c(=O)n3C)OCC(F)(F)[C@H](C3CC3)N2)n1 | 0.9 nM | 26.9 nM | – | – | –
Cn1c(=O)c2c(c3cc(Nc4nc(N5C6CCC5COC6)ncc4Cl)ccc31)N[C@@H](C1CC1)C(F)(F)CO2 | – | – | 143 nM | 42 nM | 3.2 nM
